This note sets out measurements from patent US8604038B2, “Pyrrolidine derived beta 3 adrenergic receptor agonists” (Merck Sharp & Dohme Corp., priority 2009, dated 2013).

A value given as a limit tells only on which side of the number the result lay.

The first assay deals with T1, human β3 adrenergic receptor (Homo sapiens, UniProt P13945).
T1 construct: expressed in transfected cells; host or cells: CHO (Chinese hamster ovary) cells, stably transfected
T1 sequence (P13945 whole entry): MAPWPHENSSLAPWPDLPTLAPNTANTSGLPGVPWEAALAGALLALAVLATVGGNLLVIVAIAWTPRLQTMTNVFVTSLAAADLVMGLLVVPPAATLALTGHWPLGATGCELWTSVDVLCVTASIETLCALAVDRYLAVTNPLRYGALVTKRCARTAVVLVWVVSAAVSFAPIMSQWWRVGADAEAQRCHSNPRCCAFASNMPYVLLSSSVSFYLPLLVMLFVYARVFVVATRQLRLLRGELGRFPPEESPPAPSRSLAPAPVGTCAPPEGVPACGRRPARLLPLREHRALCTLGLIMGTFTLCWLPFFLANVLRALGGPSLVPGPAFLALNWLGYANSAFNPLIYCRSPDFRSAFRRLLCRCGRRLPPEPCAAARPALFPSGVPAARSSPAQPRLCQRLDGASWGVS
The assay can be described thus: Beta-3 agonist in vitro functional assay (cAMP production, LANCE, transfected CHO cells). It counts as cell-based. Conditions: Table 3, CHO cells with cloned β3 receptor, ligands titrated 10^-12 M to 10^-5 M, read-out: Human β3 agonist functional activity. The method, then:
Functional Assay: For compounds in examples 1-50, cAMP production in response to ligand is measured according to Barton, et al. (1991, Agonist-induced desensitization of D2 dopamine receptors in human Y-79 retinoblastoma cells. Mol. Pharmacol. […]:650-658) modified as follows. The cAMP production is measured using a homogenous time-resolved fluorescence resonance energy transfer immunoassay (LANCE™, Perkin Elmer) according to the manufacture's instructions. Chinese hamster ovary (CHO) cells, stably transfected with the cloned β-adrenergic receptor (β1, β2 or β3) are harvested after 3 days of subculturing. Harvesting of cells is done with Enzyme-free Dissociation Media (Specialty Media). Cells are then counted and resuspended in assay buffer (Hank's Balanced salt solution supplemented with 5 mM HEPES, […]) containing a phosphodiesterase inhibitor (IBMX, 0.6 mM). The reaction is initiated by mixing 6,000 cells in 6 μL with 6 μL Alexa Fluor labeled cAMP antibody (LANCE™ kit) which is then added to an assay well containing 12 μL of compound (diluted in assay buffer to 2× final concentration). The reaction proceeds for 30 minutes at RT and is terminated by the addition of 24 ul detection buffer (LANCE™ kit). The assay plate is then incubated for 1 h at RT and time-resolved fluorescence measured on a Perkin Elmer Envision reader or equivalent. The unknown cAMP level is determined by comparing fluorescence levels to a cAMP standard curve.
The non-selective, full agonist β-adrenergic ligand isoproterenol is used at all three receptors to determine maximal stimulation. The human β3 adrenergic receptor (AR) selective ligand (S)-N-[4-[2-[[2-hydroxy-3-(4-hydroxyphenoxy)propyl]amino]ethyl]-phenyl]-4-iodobenzenesulfonamide is used as a control in all assays. […] The EC50 is defined as the concentration of compound that gives 50% activation of its own maximum. Data are analyzed using Microsoft Excel and Graphpad Prism or an internally developed data analysis software package.
The EC50 is defined as the concentration of compound that gives 50% activation of its own maximum. Functional antagonist assays are performed similar to described above; however, unknown ligands are titrated at β-adrenergic receptor subtypes 1 and 2 at a final concentration in the assay of 10^-12 M to 10^-5 M in the presence of 10^-9 M full agonist β-adrenergic ligand isoproterenol. The EC50 is defined as the concentration of compound that gives 50% inhibition of the full agonist response. Data are analyzed using Microsoft Excel and Graphpad Prism or an internally developed data analysis software package.
Background: Cyclic AMP is a second messenger, typically raised through Gs and lowered through Gi signalling.
With `CN(Cc1cnccn1)C(=O)c1ccc(C[C@@H]2CC[C@H]([C@H](O)c3ccccc3)N2)cc1` [Example 74], the EC50 lay in the range of 10 to 99.9 nM.

With `CN(Cc1nn(C)c(Cl)c1Cl)C(=O)c1ccc(C[C@@H]2CC[C@H]([C@H](O)c3ccccc3)N2)cc1` [Example 75], the EC50 lay within 1 to 9.9 nM.

Consider `CN(Cc1nccn1C)C(=O)c1ccc(C[C@@H]2CC[C@H]([C@H](O)c3ccccc3)N2)cc1` [Example 76], for which the EC50 was 100 to 999 nM.

On to `CN(Cc1cccc(Br)n1)C(=O)c1ccc(C[C@@H]2CC[C@H]([C@H](O)c3ccccc3)N2)cc1` [Example 77], for which the EC50 lay within 10 to 99.9 nM.

On to `CN(Cc1ccc(Br)cn1)C(=O)c1ccc(C[C@@H]2CC[C@H]([C@H](O)c3ccccc3)N2)cc1` [Example 78], for which the EC50 was in the range of 10 to 99.9 nM.

Take `CN(Cc1ccncn1)C(=O)c1ccc(C[C@@H]2CC[C@H]([C@H](O)c3ccccc3)N2)cc1` [Example 79]: the EC50 was in the range of 100 to 999 nM.

On to `CC(C)c1nccc(CN(C)C(=O)c2ccc(C[C@@H]3CC[C@H]([C@H](O)c4ccccc4)N3)cc2)n1` [Example 80], for which the EC50 lay in the range of 1 to 9.9 nM.

For the compound `Cc1nccc(CN(C)C(=O)c2ccc(C[C@@H]3CC[C@H]([C@H](O)c4ccccc4)N3)cc2)n1` [Example 81], the EC50 is 10 to 99.9 nM.

As to `Cc1cc(CN(C)C(=O)c2ccc(C[C@@H]3CC[C@H]([C@H](O)c4ccccc4)N3)cc2)on1` [Example 82], the EC50 is 10 to 99.9 nM.

As to `CN(Cc1cccc(N2CCCC2)n1)C(=O)c1ccc(C[C@@H]2CC[C@H]([C@H](O)c3ccccc3)N2)cc1` [Example 83], the EC50 is 100 to 999 nM.

Turning to `CN(Cc1nc2ccccc2[nH]1)C(=O)c1ccc(C[C@@H]2CC[C@H]([C@H](O)c3ccccc3)N2)cc1` [Example 84], the EC50 is 100 to 999 nM.

Turning to `CN(Cc1n[nH]c2c1CCCC2)C(=O)c1ccc(C[C@@H]2CC[C@H]([C@H](O)c3ccccc3)N2)cc1` [Example 85], the EC50 was under 1 nM.

`CN(Cc1ccon1)C(=O)c1ccc(C[C@@H]2CC[C@H]([C@H](O)c3ccccc3)N2)cc1` [Example 86]: the EC50 lay within 10 to 99.9 nM.

Consider `O=C(c1ccc(C[C@@H]2CC[C@H]([C@H](O)c3ccccc3)N2)cc1)N(CCO)Cc1ccccc1F` [Example 87], for which the EC50 fell in the range of 1 to 9.9 nM.

`Cc1csc(CCN(C)C(=O)c2ccc(C[C@@H]3CC[C@H]([C@H](O)c4ccccc4)N3)cc2)n1` [Example 88]: the EC50 was in the range of 10 to 99.9 nM.

With `CC(C)c1nc(CCN(C)C(=O)c2ccc(C[C@@H]3CC[C@H]([C@H](O)c4ccccc4)N3)cc2)no1` [Example 89], the EC50 was 10 to 99.9 nM.

Take `COCc1cc(CN(C)C(=O)c2ccc(C[C@@H]3CC[C@H]([C@H](O)c4ccccc4)N3)cc2)n[nH]1` [Example 90]: the EC50 is under 1 nM.

As to `CN(Cc1ccc2nccnc2c1)C(=O)c1ccc(C[C@@H]2CC[C@H]([C@H](O)c3ccccc3)N2)cc1` [Example 92], the EC50 was 10 to 99.9 nM.

Take `CC(C)c1noc(CN(C)C(=O)c2ccc(C[C@@H]3CC[C@H]([C@H](O)c4ccccc4)N3)cc2)n1` [Example 93]: the EC50 is 10 to 99.9 nM.

Take `CN(Cc1cnn(-c2ccccc2)c1)C(=O)c1ccc(C[C@@H]2CC[C@H]([C@H](O)c3ccccc3)N2)cc1` [Example 97]: the EC50 is 10 to 99.9 nM.

For `CN(CCC1CCOCC1)C(=O)c1ccc(C[C@@H]2CC[C@H]([C@H](O)c3ccccc3)N2)cc1` [Example 99], the EC50 fell in the range of 100 to 999 nM.

For `Cc1cc2nc(CN(C)C(=O)c3ccc(C[C@@H]4CC[C@H]([C@H](O)c5ccccc5)N4)cc3)[nH]c2cc1C` [Example 101], the EC50 was in the range of 100 to 999 nM.

For `CN(Cc1nc(-c2ccncc2)no1)C(=O)c1ccc(C[C@@H]2CC[C@H]([C@H](O)c3ccccc3)N2)cc1` [Example 103], the EC50 was 100 to 999 nM.

Regarding `CCN(Cc1ccnc(C(C)C)n1)C(=O)c1ccc(C[C@@H]2CC[C@H]([C@H](O)c3ccccc3)N2)cc1` [Example 104], the EC50 was in the range of 10 to 99.9 nM.

For the compound `CN(Cc1ncccc1F)C(=O)c1ccc(C[C@@H]2CC[C@H]([C@H](O)c3ccccc3)N2)cc1` [Example 106], the EC50 was in the range of 10 to 99.9 nM.

Consider `CN(Cc1cc(-c2ccncc2)on1)C(=O)c1ccc(C[C@@H]2CC[C@H]([C@H](O)c3ccccc3)N2)cc1` [Example 107], for which the EC50 fell in the range of 100 to 999 nM.

Turning to `CN(Cc1cscn1)C(=O)c1ccc(C[C@@H]2CC[C@H]([C@H](O)c3ccccc3)N2)cc1` [Example 108], the EC50 fell in the range of 100 to 999 nM.

Take `CN(Cc1cccc2ncccc12)C(=O)c1ccc(C[C@@H]2CC[C@H]([C@H](O)c3ccccc3)N2)cc1` [Example 109]: the EC50 was in the range of 100 to 999 nM.

On to `CN(Cc1noc(C2CC2)n1)C(=O)c1ccc(C[C@@H]2CC[C@H]([C@H](O)c3ccccc3)N2)cc1` [Example 112], for which the EC50 was in the range of 10 to 99.9 nM.

Take `CN(Cc1ncc[nH]1)C(=O)c1ccc(C[C@@H]2CC[C@H]([C@H](O)c3ccccc3)N2)cc1` [Example 113]: the EC50 lay within 10 to 99.9 nM.

In the case of `CN(Cc1nc2ccsc2c(=O)[nH]1)C(=O)c1ccc(C[C@@H]2CC[C@H]([C@H](O)c3ccccc3)N2)cc1` [Example 114], the EC50 lay within 1 to 9.9 nM.

Consider `CCN(CCN)C(=O)c1ccc(C[C@@H]2CC[C@H]([C@H](O)c3ccccc3)N2)cc1` [Example 115], for which the EC50 lay in the range of 100 to 999 nM.

For the compound `Cc1cnc(CN(CC(C)C)C(=O)c2ccc(C[C@@H]3CC[C@H]([C@H](O)c4ccccc4)N3)cc2)s1` [Example 116], the EC50 lay within 10 to 99.9 nM.

As to `CN(C(=O)c1ccc(C[C@@H]2CC[C@H]([C@H](O)c3ccccc3)N2)cc1)C1CCOC1` (some centres unmarked) [Example 117], the EC50 lay within 100 to 999 nM.

As for `CN(Cc1nccs1)C(=O)c1ccc(C[C@@H]2CC[C@H]([C@H](O)c3ccccc3)N2)cc1` [Example 118], the EC50 fell in the range of 100 to 999 nM.

For `CN(CCC1CCCCO1)C(=O)c1ccc(C[C@@H]2CC[C@H]([C@H](O)c3ccccc3)N2)cc1` (some centres unmarked) [Example 119], the EC50 was 100 to 999 nM.

Consider `Cc1ccc(OCCN(C)C(=O)c2ccc(C[C@@H]3CC[C@H]([C@H](O)c4ccccc4)N3)cc2)cc1` [Example 120], for which the EC50 fell in the range of 1000 to 3000 nM.

With `CCN(Cc1ccccn1)C(=O)c1ccc(C[C@@H]2CC[C@H]([C@H](O)c3ccccc3)N2)cc1` [Example 121], the EC50 lay in the range of 100 to 999 nM.

Turning to `Cc1csc(CN(C)C(=O)c2ccc(C[C@@H]3CC[C@H]([C@H](O)c4ccccc4)N3)cc2)n1` [Example 123], the EC50 lay in the range of 100 to 999 nM.

Regarding `CN(Cc1cccnc1Cl)C(=O)c1ccc(C[C@@H]2CC[C@H]([C@H](O)c3ccccc3)N2)cc1` [Example 124], the EC50 was in the range of 10 to 99.9 nM.

`CN(Cc1ncc(Cl)cn1)C(=O)c1ccc(C[C@@H]2CC[C@H]([C@H](O)c3ccccc3)N2)cc1` [Example 125]: the EC50 was in the range of 100 to 999 nM.

`Cc1cccn2cc(CN(C)C(=O)c3ccc(C[C@@H]4CC[C@H]([C@H](O)c5ccccc5)N4)cc3)nc12` [Example 126]: the EC50 lay within 100 to 999 nM.

For the compound `CN(CC1CCCO1)C(=O)c1ccc(C[C@@H]2CC[C@H]([C@H](O)c3ccccc3)N2)cc1` (some centres unmarked) [Example 127], the EC50 lay in the range of 100 to 999 nM.

As to `CC(c1cccnc1)N(C)C(=O)c1ccc(C[C@@H]2CC[C@H]([C@H](O)c3ccccc3)N2)cc1` (some centres unmarked) [Example 128], the EC50 lay within 1 to 9.9 nM.

Consider `CCN(Cc1cccnn1)C(=O)c1ccc(C[C@@H]2CC[C@H]([C@H](O)c3ccccc3)N2)cc1` [Example 129], for which the EC50 fell in the range of 100 to 999 nM.

Take `O=C(c1ccc(C[C@@H]2CC[C@H]([C@H](O)c3ccccc3)N2)cc1)N(Cc1cccnn1)C1CC1` [Example 130]: the EC50 fell in the range of 100 to 999 nM.

`COCCCN(Cc1cccnn1)C(=O)c1ccc(C[C@@H]2CC[C@H]([C@H](O)c3ccccc3)N2)cc1` [Example 131]: the EC50 lay within 100 to 999 nM.

In the case of `CN(Cc1csc(N)n1)C(=O)c1ccc(C[C@@H]2CC[C@H]([C@H](O)c3ccccc3)N2)cc1` [Example 132], the EC50 is 100 to 999 nM.

The assay is the same for the next values; noted with them: given as a range, CHO cells with cloned β3 receptor, read-out: human Beta-3 agonist functional activity.
Consider `CN(C)C(=O)c1ccc(C[C@@H]2CC[C@H](C(O)c3ccc(N)nc3)N2)cc1` (stereo partly drawn) [Example 133, 4-({(2S,5R)-5-[(6-aminopyridin-3-yl)(hydroxy)methyl]pyrrolidin-2-yl}methyl)-N,N-dimethylbenzamide], for which the EC50 was in the range of 10 to 99.9 nM.

Take `CN(CCc1ccccn1)C(=O)c1ccc(C[C@@H]2CC[C@H]([C@H](O)c3ccccc3)N2)cc1` [Example 134, 4-({(2S,5R)-5-[(R)-hydroxy(phenyl)methyl]pyrrolidin-2-yl}methyl)-N-methyl-N-[2-(pyridin-2-yl)ethyl)benzamide]: the EC50 lay within 10 to 99.9 nM.
